Measured values taken from patent publication US20250368664A1, “SURFACTANTS HAVING PEFA COMPOUNDS AND METHODS OF USE THEREOF” (Ruby Bio Inc., priority 2022, published 2025).

Experiment: Solubility of nonionic surfactant in SDBS
Format: physicochemical
Details: in combination with SDBS at the stated ratio

cetearyl glucoside [CGlucoside]
solubility in SDBS: insoluble
